From patent US20230099106A1, “PRODRUGS USEFUL IN ADOPTIVE CELL THERAPY” (Memorial Sloan Kettering Cancer Center, priority 2020, published 2023)
Like-named read-outs stand apart in the source and are kept apart here.

Key:
HCC827 (adenocarcinoma) = test: Cell-Titer Glo cytotoxicity assay, HCC827 cells; format: cell-based; details: for IC50: Homo sapiens, 48 hours of drug treatment, ≥ 6 drug dilutions (3-fold); for cytotoxicity (cell viability): HCC827, 48 hrs
Experimental: FIG. 3 provides the results of HCC827 cells incubated for 48 hrs. with or without CPG2 in the presence of APdMG-Glu where cell viability was measured by Cell-Titre Glo, according to the working examples. The viability of the cells incubated with the active version of the drug (O-(3-aminopropyl)-des-morpholino-gefitinib) are shown for comparison.
(§1) Prodrug/Drug IC50 and trans and cis-toxicity assays with secreted enzyme were performed using Cell-Titer Glo (Promega). Cells were analyzed in triplicate wells of a 96-well dish and equivalent volume of Cell-Titer Glo reagent was added to each well. Following a 10-minute incubation at room temperature samples were transferred to White 96-well Optiplate (Perkin Elmer) and luminescence was measured on a SpectraMax M2 plate reader (Molecular Devices). Data were analyzed with SoftMax Pro software.

PC9 (adenocarcinoma) = test: Cell-Titer Glo cytotoxicity assay, PC9 cells; format: cell-based; details: for IC50: Homo sapiens, PC-9, 48 hours of drug treatment, ≥ 6 drug dilutions (3-fold)
Experimental: as §1

CPG2 [1] = biological target: T1, CPG2 (Pseudomonas sp., UniProt P06621); format: biochemical; details: for Vmax: disappearance of substrate and/or appearance of product
T1 construct: HA (C); His (C); host or cells: E. coli
Excerpt: CPG2 proteins were produced and purified by GenScript. Constructs contain c-terminal HA and His epitope tags and were purified by nickel columns.

CPG2 [2] = biological target: T1, CPG2; test: Amplex Red glutamate release assay with recombinant CPG2; format: biochemical; details: incubated with recombinant CPG2, FIG. 2
Experimental: FIG. 2 provides the results of incubating APdMG-Glu, an embodiment of a prodrug compound of the present technology, with increasing concentration of recombinant CPG2 where glutamate release was measured in an Amplex Red assay, according to the working examples.
Recombinant CPG2 enzyme was incubated with prodrugs in CPG2 reaction buffer (1M TrisHCL, 2 mM ZnCl2) for 2 hr at 37° C. and the enzyme/prodrug mixture was combined 1:1 with Amplex Red™ Glutamate Oxidase Assay mixture (Thermo cat # A12221). Following 30 min at 37° C. fluorescent emission at 590 nm was measured on a SpectraMax M2 plate reader (Molecular Devices). Data were analyzed with SoftMax Pro software.

[3] = substrate of CPG2, RapidFire-MS

T1 sequence (P06621 23-415): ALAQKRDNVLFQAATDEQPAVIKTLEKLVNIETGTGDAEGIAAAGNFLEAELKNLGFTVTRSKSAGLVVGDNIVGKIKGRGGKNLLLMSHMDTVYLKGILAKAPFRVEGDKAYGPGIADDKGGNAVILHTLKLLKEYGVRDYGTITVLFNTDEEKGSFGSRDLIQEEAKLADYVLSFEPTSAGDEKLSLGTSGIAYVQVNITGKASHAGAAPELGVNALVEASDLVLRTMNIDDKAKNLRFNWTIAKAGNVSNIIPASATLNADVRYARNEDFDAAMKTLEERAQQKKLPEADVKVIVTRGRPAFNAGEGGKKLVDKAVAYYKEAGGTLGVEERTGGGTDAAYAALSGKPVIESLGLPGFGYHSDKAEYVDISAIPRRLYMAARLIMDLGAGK

SMILES | IC50 (HCC827 (adenocarcinoma); HCC827) [nM] | IC50 (PC9 (adenocarcinoma)) [nM] | Km (CPG2 [1]; [3]) [µM] | kcat (CPG2 [1]; [3]) [s⁻¹] | Vmax (CPG2 [1]; [3]) [µM/s] | cytotoxicity (cell viability) (HCC827 (adenocarcinoma); plus recombinant CPG2, FIG. 3) | cytotoxicity (cell viability) (HCC827 (adenocarcinoma); prodrug alone without CPG2, FIG. 3) | Selective index (HCC827 (adenocarcinoma); HCC827, prodrug vs active drug) | cleavage of the glutamate moiety (glutamate release) (CPG2 [2]) | Selective index (PC9 (adenocarcinoma); prodrug vs active drug) | Km (CPG2 [1]) [µM]
COc1cc2ncnc(Nc3ccc(F)c(Cl)c3)c2cc1OCCCN [APdMG, 6-(3-Aminopropoxy)-N-(3-chloro-4-fluorophenyl)-7-methoxyquinazolin-4-amine] | 20 | 210 | – | – | – | – | – | – | – | – | –
COc1cc2ncnc(Nc3ccc(F)c(Cl)c3)c2cc1OCCCNC(=O)OCc1ccc(NC(=O)N[C@@H](CCC(=O)O)C(=O)O)cc1 [APdMG-Glu, ((4-((((3-((4-((3-chloro-4-fluorophenyl)amino)-7-methoxyquinazolin-6-yl)oxy)propyl)carbamoyl)oxy)methyl)phenyl)carbamoyl)-L-glutamic acid] | 110 | 240 | 2.25 | 0.137 | 0.10 | cytotoxicity comparable to that of the parent drug gefitinib | not APdMG-Glu alone | 5.5 | confirm cleavage of the glutamate moiety | 6 | –
CN(Cc1cnc2nc(N)nc(N)c2n1)c1ccc(C(=O)N[C@@H](CCC(=O)O)C(=O)O)cc1 [methotrexate, reference compound] | – | – | – | 10.36 | 0.39 | – | – | – | – | – | 9.45
